Experiments:
[1] = molecular target: T1, UGT1A9 (Homo sapiens, UniProt O60656)
T1 sequence (O60656 26-530): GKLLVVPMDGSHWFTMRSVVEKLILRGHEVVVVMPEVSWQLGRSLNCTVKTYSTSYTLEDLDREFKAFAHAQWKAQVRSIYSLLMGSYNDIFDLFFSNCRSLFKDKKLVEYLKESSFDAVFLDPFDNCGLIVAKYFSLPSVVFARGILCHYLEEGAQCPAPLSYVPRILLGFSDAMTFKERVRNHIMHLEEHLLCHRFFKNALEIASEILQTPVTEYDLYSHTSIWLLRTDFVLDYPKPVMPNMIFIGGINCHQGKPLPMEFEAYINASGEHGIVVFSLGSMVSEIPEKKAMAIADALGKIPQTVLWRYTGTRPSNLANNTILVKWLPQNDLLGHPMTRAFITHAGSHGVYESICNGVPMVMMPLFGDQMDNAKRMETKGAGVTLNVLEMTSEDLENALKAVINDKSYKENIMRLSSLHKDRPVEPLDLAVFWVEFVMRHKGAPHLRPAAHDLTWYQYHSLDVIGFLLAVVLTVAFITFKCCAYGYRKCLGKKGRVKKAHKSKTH

[2] = molecular target: T2, UGT1A3 (Homo sapiens, UniProt P35503); assay: Inhibition of 4-MU glucuronidation by recombinant UGT1A3; details: recombinant UGT1A3, pH 7.4, probe 4-MU
T2 sequence (P35503 29-534): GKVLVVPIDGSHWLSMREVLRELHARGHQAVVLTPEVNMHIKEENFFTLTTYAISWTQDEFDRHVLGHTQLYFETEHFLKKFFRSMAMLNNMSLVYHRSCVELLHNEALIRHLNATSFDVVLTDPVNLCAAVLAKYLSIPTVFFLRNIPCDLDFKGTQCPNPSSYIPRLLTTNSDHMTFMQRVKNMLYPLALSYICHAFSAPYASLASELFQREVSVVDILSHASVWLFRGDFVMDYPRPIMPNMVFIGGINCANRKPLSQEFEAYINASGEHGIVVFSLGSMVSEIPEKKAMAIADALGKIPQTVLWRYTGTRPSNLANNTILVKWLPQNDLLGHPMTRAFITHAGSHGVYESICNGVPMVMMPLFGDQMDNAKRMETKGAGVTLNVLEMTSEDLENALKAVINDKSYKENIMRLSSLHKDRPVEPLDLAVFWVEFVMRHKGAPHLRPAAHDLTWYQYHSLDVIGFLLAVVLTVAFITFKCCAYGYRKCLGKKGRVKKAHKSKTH

[3] = molecular target: T3, UGT1A8 (Homo sapiens, UniProt Q9HAW9); assay: Inhibition of 4-MU glucuronidation by recombinant UGT1A8; details: recombinant UGT1A8, pH 7.4, probe 4-MU
T3 sequence (Q9HAW9 26-530): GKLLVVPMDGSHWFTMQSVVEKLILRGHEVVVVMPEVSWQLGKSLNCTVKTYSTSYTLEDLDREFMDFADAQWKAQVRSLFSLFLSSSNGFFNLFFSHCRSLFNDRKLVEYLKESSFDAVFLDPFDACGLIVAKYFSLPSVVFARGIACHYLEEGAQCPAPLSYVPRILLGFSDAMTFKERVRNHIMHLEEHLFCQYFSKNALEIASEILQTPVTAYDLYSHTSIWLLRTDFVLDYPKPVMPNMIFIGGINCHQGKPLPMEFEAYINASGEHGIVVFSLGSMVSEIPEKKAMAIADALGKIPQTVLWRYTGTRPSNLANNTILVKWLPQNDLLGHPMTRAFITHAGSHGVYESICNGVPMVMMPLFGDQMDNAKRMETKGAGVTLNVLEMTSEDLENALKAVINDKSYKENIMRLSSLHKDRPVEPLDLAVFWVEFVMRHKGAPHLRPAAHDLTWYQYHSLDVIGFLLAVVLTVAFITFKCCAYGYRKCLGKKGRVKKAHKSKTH

[4] = molecular target: T1, UGT1A9; assay: biochemical
[5] = molecular target: T4, UGT1A7 (Homo sapiens, UniProt Q9HAW7); assay: Prediction of DDI risk (AUCi/AUC) from in vitro data, UGT1A7 substrates; set-up: purchased BD Gentest (Woburn, MA); host or cells: baculovirus-infected insect cells
T4 sequence (Q9HAW7 26-530): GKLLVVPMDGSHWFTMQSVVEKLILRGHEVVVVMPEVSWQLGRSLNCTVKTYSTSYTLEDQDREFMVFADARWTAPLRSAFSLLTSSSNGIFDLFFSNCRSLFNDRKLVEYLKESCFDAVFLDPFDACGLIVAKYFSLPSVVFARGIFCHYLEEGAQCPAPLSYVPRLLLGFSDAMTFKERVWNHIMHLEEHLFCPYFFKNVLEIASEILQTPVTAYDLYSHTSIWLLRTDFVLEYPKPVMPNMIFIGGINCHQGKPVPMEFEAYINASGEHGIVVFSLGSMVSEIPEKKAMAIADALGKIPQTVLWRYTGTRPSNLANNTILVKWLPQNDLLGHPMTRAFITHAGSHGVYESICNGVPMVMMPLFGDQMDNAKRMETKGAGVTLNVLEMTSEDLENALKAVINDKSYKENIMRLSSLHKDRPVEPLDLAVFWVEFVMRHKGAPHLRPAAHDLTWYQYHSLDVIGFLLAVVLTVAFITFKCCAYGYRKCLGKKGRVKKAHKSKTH

[6] = ref [17][40][45] axitinib, [38][39][46] imatinib, [41][42] lapatinib, [43][44] vandetanib, cited from earlier work; for Cmax: clinical oral dose: axitinib 5 mg/12 h, imatinib 400 mg/24 h, lapatinib 1250 mg/24 h, vandetanib 300 mg/24 h; for Absorption Rate Constant (ka) / Fraction absorbed (Fa) / Oral CL / t1/2: clinical

| Compound | Predicted AUCi/AUC ratio of UGT1A9 substrates ([1]; fm is 1) | activity at 75 min, 100 µM [2] [%] | activity at 30 min, 100 µM [3] [%] | IC50 [4] [µM] | Predicted AUCi/AUC ratio of UGT1A7 substrates ([5]; fm is 1) | Cmax [6] [µM] | Absorption Rate Constant (ka) [6] [h⁻¹] | Fraction absorbed (Fa) [6] | Oral CL [6] [L/h] | t1/2 [6] [h] | Predicted increase in the AUC of substrate by UGT1A9 inhibition ([1]; fm not given) | Ki [4] [µM] | Predicted increase in the AUC of substrate by UGT1A7 inhibition ([5]; fm not given, Imax,u used) [%] |
| --- | --- | --- | --- | --- | --- | --- | --- | --- | --- | --- | --- | --- | --- |
| CNC(=O)c1ccccc1Sc1ccc2c(/C=C/c3ccccn3)n[nH]c2c1 [Axitinib, axitinib] | ~1 | 47.8 ± 12.8 | 54.6 ± 2.4 | 3.6 ± 0.7 | ~1 | 0.16 | 0.523 | 0.88 | 45 | 3.2 |  |  |  |
| COc1cc2c(Nc3ccc(Br)cc3F)ncnc2cc1OCC1CCN(C)CC1 [Vandetanib, vandetanib] |  | 104 ± 2.1 | 56 ± 6.3 | 5 ± 0.4 |  | 3.32 | 0.3 | 0.935 | 13.2 | 456 | about 2% | 9 ± 1.2 |  |
| CS(=O)(=O)CCNCc1ccc(-c2ccc3ncnc(Nc4ccc(OCc5cccc(F)c5)c(Cl)c4)c3c2)o1 [Lapatinib, lapatinib] |  | 96.5 ± 7.5 | 73.5 ± 10.6 |  |  | 4.2 | 0.7 | 0.73 | 114 | 24 |  |  | ~1 |

Source: article PMC4672351, “Drug-Drug Interaction Potentials of Tyrosine Kinase Inhibitors via Inhibition of UDP-Glucuronosyltransferases” (Scientific Reports, 2015)
